Test systems include OVCAR-5; OVCAR-8; XF498; HOP-92; SF-268; HL-60; HCT-15; DMS-273; HCT-116; LOX IMVI; COLO 205; SNB-19; LXFL 529; UACC-62; OVCAR-3; SF-539; DLD-1; RXF 393; SF-295.
Common to all, as to assay: NCI anticancer screen, dose series, 48 h

Results on two compounds are retold here after ChEMBL document CHEMBL1201862, “PubChem BioAssay data set” (2004).

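Dose response: 5 concentrations. Exposure: 48 h. Format: 96-well plates. Endpoint: linear interpolation; highest concentration if not reached. Here, GI50 denotes the concentration required for 50% inhibition of growth.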 Activity calls are given as the source filed them. Cut-off read from the data, not from the text of the source: active = GI50 up to about 1.1 µM and inactive = higher.

With `CC(C)OP(=O)(OC(C)C)/C(=N/Nc1ccc([N+](=O)[O-])cc1)Nc1ccc(N/C(=N\Nc2ccc([N+](=O)[O-])cc2)P(=O)(OC(C)C)OC(C)C)cc1`, the GI50 in the assay on OVCAR-5 is 71.8 µM (inactive); in the assay with OVCAR-8, 13.6 µM (inactive); in the assay with XF498 it was > 100 µM (inactive); in the assay with HOP-92, > 100 µM (inactive); in the assay with SF-268 it was > 100 µM (inactive); with HL-60 it was 20.9 µM (inactive). Further, the GI50 in the assay with HCT-15 was 6.21 µM; in the assay with DMS-273 it was 5.58 µM (inactive); with HCT-116, 4.15 µM (inactive); in the assay with LOX IMVI, 12.8 µM (inactive); in the assay on COLO 205, 5.2 µM (inactive); in the assay on SNB-19, 27.4 µM (inactive). Further, the GI50 was 19.6 µM (inactive) in the assay on LXFL 529; 2.2 µM (inactive) with UACC-62; 70.1 µM (inactive) with OVCAR-3; 57.3 µM (inactive) with SF-539; 4.72 µM (inactive) in the assay with DLD-1.

Consider `COC(=O)C1=C(C(=O)OC)C23CC1C1C(C(=O)OC)=C(C(=O)OC)C12C1C=CC3C2C(=O)OC(=O)C21` (stereo not given), for which the GI50 with OVCAR-5 is > 100 µM (inactive); in the assay with OVCAR-8, 48.3 µM (inactive); in the assay on XF498, 45.9 µM (inactive); in the assay with HOP-92, 25.3 µM (inactive); in the assay with SF-268 it was 48.3 µM (inactive); in the assay with HL-60 it was 40.1 µM (inactive). Also, the GI50 in the assay with HCT-15 is 42.1 µM; with DMS-273, 36.6 µM (inactive); in the assay on RXF 393, 38.9 µM (inactive); in the assay on HCT-116, 37.7 µM (inactive); with SF-295 it was 53 µM (inactive); in the assay on COLO 205 it was 28.3 µM (inactive). Besides, the GI50 in the assay with SNB-19 was 62.1 µM (inactive); with LXFL 529, 39.6 µM (inactive); in the assay on UACC-62, 31.5 µM (inactive); in the assay on OVCAR-3, 3.72 µM (inactive); in the assay on SF-539, 23.7 µM (inactive); with DLD-1 it was 76.9 µM (inactive).
